The values below come from patent US11208412B2 (DAEGU-GYEONGBUK MEDICAL INNOVATION FOUNDATION, priority 2017, dated 2021).

Holding throughout (test): Kinase selectivity, DiscoverX scanMAX Kinase assay panel (% control)
Common to all, as to format: binding

Test [1] deals with T1, kinases of the scanMAX Kinase assay panel (Homo sapiens, UniProt O43353).
T1 construct: purchased DiscoverX Co. (contract measurement) scanMAX Kinase assay panel
As to conditions: kinase RIPK2; 1 uM in DMSO. In short, it runs like this:
(§1)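 Percent of control computed as (compound − positive control)/(negative control − positive control) × 100, DMSO defining 100% and positive control 0%. Each panel kinase exposed to 1 uM compound; values under 35% taken to mean the compound acts on that kinase.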

Test [2] has as its target T2, kinases of the scanMAX Kinase assay panel (Homo sapiens, UniProt O94806).
T2 construct: purchased DiscoverX Co. (contract measurement) scanMAX Kinase assay panel
T2 sequence (O94806 1-890): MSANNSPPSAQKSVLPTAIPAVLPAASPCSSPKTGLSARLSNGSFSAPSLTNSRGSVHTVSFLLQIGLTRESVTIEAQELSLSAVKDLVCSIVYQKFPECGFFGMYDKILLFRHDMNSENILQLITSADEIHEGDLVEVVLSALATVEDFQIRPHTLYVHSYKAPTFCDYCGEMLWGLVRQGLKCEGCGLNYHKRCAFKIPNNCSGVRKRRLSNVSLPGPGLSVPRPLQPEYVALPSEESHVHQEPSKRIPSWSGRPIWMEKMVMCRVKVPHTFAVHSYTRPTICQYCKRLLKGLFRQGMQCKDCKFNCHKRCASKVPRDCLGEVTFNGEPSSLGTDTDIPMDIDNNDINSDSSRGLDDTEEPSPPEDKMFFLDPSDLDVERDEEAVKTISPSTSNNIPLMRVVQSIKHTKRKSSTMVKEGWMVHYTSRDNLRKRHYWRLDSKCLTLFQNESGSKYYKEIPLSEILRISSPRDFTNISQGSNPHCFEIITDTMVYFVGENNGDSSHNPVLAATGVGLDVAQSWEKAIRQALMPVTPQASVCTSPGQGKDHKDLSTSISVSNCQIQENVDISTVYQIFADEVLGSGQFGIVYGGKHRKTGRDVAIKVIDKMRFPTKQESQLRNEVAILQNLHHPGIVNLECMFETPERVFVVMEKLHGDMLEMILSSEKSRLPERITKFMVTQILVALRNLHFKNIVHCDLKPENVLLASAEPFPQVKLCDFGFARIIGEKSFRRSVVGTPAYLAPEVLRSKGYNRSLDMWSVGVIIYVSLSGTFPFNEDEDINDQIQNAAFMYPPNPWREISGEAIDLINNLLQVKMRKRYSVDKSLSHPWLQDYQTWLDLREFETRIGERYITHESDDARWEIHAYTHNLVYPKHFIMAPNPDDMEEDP
As to conditions: PRKD3; 1 uM. In short, it runs like this:
as §1

Test [3] addresses T3, kinases of the scanMAX Kinase assay panel (Homo sapiens, UniProt P00533, G719S).
T3 construct: purchased DiscoverX Co. (contract measurement) scanMAX Kinase assay panel
As to conditions: EGFR(G719S); 1 uM. The gist of the method: as §1

The target of test [4] is T4, kinases of the scanMAX Kinase assay panel (Homo sapiens, UniProt Q13131).
T4 construct: purchased DiscoverX Co. (contract measurement) scanMAX Kinase assay panel
As to conditions: AMPK-alpha1; 1 uM. The gist of the method: as §1

Test [5] has as its target T5, kinases of the scanMAX Kinase assay panel (Homo sapiens, UniProt Q16832).
T5 construct: purchased DiscoverX Co. (contract measurement) scanMAX Kinase assay panel
T5 sequence (Q16832 22-855): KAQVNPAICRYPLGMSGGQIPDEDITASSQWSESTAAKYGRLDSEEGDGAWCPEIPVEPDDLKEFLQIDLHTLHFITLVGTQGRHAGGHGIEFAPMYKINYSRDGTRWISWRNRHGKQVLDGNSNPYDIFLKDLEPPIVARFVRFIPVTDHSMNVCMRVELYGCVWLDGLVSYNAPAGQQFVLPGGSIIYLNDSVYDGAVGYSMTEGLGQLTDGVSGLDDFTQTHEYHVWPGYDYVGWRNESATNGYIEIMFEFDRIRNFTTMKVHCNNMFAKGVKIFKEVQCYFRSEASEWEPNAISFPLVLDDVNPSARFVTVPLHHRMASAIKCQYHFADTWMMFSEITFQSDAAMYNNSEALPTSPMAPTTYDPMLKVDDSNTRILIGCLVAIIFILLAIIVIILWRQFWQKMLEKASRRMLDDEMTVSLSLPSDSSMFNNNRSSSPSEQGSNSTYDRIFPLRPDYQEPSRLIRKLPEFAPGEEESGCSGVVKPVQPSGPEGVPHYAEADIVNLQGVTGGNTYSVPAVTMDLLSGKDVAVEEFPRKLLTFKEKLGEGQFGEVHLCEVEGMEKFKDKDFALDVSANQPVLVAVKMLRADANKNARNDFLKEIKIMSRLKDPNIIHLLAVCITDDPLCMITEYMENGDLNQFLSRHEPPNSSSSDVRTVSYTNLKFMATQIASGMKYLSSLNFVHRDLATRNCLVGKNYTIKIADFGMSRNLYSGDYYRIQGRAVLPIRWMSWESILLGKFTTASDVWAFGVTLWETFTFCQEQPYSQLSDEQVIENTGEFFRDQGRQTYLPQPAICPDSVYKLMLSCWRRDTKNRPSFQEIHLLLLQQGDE
Particulars: DDR2; 1 uM. In short, it runs like this: as §1

Test [6] deals with T6, kinases of the scanMAX Kinase assay panel (Homo sapiens, UniProt Q6PHR2).
T6 construct: purchased DiscoverX Co. (contract measurement) scanMAX Kinase assay panel
T6 sequence (Q6PHR2 1-472): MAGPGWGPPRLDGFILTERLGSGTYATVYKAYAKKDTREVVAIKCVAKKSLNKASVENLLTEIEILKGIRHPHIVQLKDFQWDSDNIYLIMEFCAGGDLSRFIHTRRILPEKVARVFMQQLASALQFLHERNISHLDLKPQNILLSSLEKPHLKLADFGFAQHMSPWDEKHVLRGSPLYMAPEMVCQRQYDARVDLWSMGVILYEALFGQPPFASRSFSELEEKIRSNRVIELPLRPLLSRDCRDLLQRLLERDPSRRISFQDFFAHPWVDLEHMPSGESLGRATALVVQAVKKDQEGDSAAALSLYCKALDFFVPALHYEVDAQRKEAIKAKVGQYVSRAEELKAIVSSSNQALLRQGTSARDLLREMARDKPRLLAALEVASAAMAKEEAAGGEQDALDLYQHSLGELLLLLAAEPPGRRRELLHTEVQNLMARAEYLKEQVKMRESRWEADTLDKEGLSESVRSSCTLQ
As to conditions: kinase ULK3; 1 uM in DMSO. In short, it runs like this:
as §1

For test [7], the target named is T7, kinases of the scanMAX Kinase assay panel (Homo sapiens, UniProt Q9P289).
T7 construct: purchased DiscoverX Co. (contract measurement) scanMAX Kinase assay panel
As to conditions: MST4; 1 uM. In short, it runs like this:
as §1

T4 sequence (Q13131 whole entry): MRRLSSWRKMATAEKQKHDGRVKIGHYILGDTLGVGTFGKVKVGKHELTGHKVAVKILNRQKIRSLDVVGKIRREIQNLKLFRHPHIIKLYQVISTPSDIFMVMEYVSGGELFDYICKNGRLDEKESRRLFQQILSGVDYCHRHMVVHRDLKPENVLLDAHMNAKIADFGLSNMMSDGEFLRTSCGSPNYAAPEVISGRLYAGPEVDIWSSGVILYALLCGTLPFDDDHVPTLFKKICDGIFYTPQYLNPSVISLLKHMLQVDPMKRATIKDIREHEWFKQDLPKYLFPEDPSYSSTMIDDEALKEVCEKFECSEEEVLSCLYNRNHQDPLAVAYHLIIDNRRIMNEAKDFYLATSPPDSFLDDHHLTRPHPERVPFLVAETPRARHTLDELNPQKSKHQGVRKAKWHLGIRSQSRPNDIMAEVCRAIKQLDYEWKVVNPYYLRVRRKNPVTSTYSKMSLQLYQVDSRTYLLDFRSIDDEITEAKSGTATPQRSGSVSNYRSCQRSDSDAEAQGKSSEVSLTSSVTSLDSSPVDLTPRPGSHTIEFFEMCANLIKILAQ
T3 sequence (P00533 25-1210 G719S): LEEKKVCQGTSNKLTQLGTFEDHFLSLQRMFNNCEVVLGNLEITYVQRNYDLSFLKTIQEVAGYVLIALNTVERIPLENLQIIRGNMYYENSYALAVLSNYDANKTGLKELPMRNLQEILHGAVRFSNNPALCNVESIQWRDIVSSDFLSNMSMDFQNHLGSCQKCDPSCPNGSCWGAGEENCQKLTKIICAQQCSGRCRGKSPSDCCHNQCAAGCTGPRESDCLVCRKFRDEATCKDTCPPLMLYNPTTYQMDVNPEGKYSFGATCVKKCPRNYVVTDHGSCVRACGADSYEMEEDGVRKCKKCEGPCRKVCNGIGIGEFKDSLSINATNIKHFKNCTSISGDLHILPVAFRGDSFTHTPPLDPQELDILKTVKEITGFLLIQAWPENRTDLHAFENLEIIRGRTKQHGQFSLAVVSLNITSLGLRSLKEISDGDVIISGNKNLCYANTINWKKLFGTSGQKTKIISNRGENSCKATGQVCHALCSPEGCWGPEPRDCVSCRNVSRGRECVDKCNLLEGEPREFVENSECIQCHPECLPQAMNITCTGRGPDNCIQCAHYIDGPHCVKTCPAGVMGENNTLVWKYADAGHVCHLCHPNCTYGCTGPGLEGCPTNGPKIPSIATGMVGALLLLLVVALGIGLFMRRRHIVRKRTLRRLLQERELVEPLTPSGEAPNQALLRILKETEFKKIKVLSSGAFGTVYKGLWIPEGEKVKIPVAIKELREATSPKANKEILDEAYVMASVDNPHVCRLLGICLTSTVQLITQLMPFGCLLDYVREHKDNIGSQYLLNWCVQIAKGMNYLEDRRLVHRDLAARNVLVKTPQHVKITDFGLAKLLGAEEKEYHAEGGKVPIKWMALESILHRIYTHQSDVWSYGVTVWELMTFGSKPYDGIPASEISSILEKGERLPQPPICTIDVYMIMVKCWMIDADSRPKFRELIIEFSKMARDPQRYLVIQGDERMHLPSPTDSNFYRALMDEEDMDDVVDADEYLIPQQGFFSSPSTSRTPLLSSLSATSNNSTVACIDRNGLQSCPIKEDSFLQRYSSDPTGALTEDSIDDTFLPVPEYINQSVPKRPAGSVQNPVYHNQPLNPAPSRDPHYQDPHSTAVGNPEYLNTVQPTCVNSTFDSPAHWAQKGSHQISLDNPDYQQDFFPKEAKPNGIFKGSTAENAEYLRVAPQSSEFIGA
T7 sequence (Q9P289 whole entry): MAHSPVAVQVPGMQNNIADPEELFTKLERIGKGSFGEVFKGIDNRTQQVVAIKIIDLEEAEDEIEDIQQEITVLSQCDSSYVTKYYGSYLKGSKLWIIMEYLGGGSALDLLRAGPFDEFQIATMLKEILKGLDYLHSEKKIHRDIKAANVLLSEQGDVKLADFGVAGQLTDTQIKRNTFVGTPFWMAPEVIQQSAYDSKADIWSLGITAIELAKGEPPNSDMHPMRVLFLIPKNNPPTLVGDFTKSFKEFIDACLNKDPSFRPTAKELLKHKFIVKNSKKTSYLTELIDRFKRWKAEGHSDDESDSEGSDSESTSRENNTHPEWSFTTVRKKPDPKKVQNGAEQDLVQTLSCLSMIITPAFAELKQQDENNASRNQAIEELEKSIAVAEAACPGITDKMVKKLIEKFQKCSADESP
T1 sequence (O43353 whole entry): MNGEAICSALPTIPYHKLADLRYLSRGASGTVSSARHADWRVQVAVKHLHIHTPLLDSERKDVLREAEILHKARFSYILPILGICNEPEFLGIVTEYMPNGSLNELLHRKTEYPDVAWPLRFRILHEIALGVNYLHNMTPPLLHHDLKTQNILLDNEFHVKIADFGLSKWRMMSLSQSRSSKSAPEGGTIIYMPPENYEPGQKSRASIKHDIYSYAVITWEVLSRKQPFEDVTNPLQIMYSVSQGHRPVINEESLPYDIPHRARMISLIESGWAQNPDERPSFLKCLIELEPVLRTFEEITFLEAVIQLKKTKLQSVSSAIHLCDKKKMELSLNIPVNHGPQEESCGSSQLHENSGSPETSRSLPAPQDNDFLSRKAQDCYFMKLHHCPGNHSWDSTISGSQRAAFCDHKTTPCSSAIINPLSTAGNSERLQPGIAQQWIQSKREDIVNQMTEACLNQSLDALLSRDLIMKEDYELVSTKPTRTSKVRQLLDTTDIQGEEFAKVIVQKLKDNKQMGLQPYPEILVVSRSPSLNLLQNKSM

`CNc1nc(Nc2ccc(C(=O)N3CCOCC3)cc2OC)nc2[nH]cc(C#N)c12` [Example 1, 2-((2-methoxy-4-(morpholine-4-carbonyl)phenyl)amino)-4-(methylamino)-7H-pyrrolo[2,3-d]pyrimidine-5-carbonitrile]: the remaining binding at 1 µM in test [1] turned out to be 100%; in test [2], 39%; in test [3], 82%; in test [4], 87%; in test [5], 96%; in test [6], 62%. Also, in test [7], the remaining binding at 1 µM came to 69%.
Turning to `CC1(Nc2nc(Nc3cnn([C@H]4CCN(C5COC5)C[C@@H]4F)c3Cl)nc3[nH]cc(C#N)c23)CC1` [Example 52, 2-((5-chloro-1-((3S,4S)-3-fluoro-1-(oxetane-3-yl)piperidine-4-yl)-1H-pyrazole-4-yl)amino)((1-methylcyclopropyl)amino)-7H-pyrrolo[2,3-d]pyrimidine-5-carbonitrile], the remaining binding at 1 µM in test [1] came out at 61%; in test [2], 0.7%; in test [3], 57%; in test [4], 4.3%; in test [5] it was 20%; in test [6] it was 0.2%. This molecule also returned a remaining binding at 1 µM in test [7] of 28%.
`CCNc1nc(Nc2ccc(C(=O)N3CCC(N4CCOCC4)CC3)cc2OC)nc2[nH]cc(C(F)(F)F)c12` [Example 104, (4-((4-(ethylamino)-5-(trifluoromethyl)-7H-pyrrolo[2,3-d]pyrimidine-2-yl)amino)-3-methoxyphenyl)(4-morpholinopiperidine-1-yl)methanone]: the remaining binding at 1 µM amounted to 100% in test [1]; 17% in test [2]; 100% in test [3]; 100% in test [4]; 100% in test [5]; 100% in test [6]. Further, in test [7], the remaining binding at 1 µM is 100%.
